The data set deals with NIH 3T3 fibroblasts. The settings on record: read-out: IC50 (cytotoxicity); 24 hours, MTS.

Experimental: In vitro cytotoxicity of the photoinitiator and the gel were tested using NIH 3T3 fibroblasts cultured in Dulbecco's Modified Eagle's Medium (DMEM) containing 10% fetal bovine serum and 1% penicillin-streptomycin. Cells were seeded in either 96 well plates or 12 well plates at a density of 2,500 cells/well or 25,000 cells/well, respectively, and allowed to adhere overnight. Photoinitiator solutions and the gel solution were sterile filtered using a 0.22 um filter prior to testing in vitro. The gel solution was then gelled within the biosafety cabinet using the 150 W halogen lamp and co-cultured with the cells utilizing a 3 μm pore size transwell insert. Cells were incubated with treatments for 24 hours and then viability was measured using an MTS (3-(4,5-dimethyltriazol-2-yl)-5-(3-carboxymethoxyphenyl)-2-(4-sulfophenyl)-2H-tratrazolium, inner salt) assay (CellTiter 96® AQueous One, Promega). Cell viabilities were normalized to control untreated cells.

Usually IC50 stands for the concentration that inhibits the measured activity by half. Regarding `O=C(O)c1ccccc1-c1c2cc(Br)c(=O)c(Br)c-2oc2c(Br)c(O)c(Br)cc12` [photoinitiator, Eosin Y], the IC50 was approximately 223 µM.

Values taken from patent publication US20230039987A1, “GEL COMPOSITIONS, SYSTEMS, AND METHODS” (Boston Scientific Scimed, Inc., priority 2021, published 2023).
